Laboratory results as given in ChEMBL document CHEMBL1144174, “Design and synthesis of 6-fluoro-2-naphthyl derivatives as novel CCR3 antagonists with reduced CYP2D6 inhibition” (Bioorg Med Chem, 2008).
Calls of active or inactive are those of the source. The calls are words filed in the database; no cut-off is given here.

What was measured:
[1] = target: T1, C-C chemokine receptor type 3 (Homo sapiens, UniProt P51677); experiment: Antagonist activity at CCR3 receptor expressed in mouse B300-19 cells assessed as inhibition of eotaxin-induced calcium influx by spectrophotometry; assay type: functional, cell-based
T1 sequence (P51677 whole entry): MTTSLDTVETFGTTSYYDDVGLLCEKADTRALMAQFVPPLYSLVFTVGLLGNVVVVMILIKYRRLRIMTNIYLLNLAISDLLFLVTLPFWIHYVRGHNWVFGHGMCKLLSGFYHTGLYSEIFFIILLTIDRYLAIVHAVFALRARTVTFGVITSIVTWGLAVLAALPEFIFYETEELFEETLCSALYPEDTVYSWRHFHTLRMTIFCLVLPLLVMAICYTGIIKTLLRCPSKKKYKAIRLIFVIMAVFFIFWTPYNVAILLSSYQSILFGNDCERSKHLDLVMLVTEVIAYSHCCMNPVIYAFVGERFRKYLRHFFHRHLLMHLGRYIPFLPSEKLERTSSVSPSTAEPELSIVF

Cytochrome P450 2D6 = Cytochrome P450 2D6 (Homo sapiens, UniProt P10635); experiment: Inhibition of human CYP2D6 by fluorescence technique in presence of NADP; assay type: ADME
Cytochrome P450 2D6, sequence (P10635 whole entry): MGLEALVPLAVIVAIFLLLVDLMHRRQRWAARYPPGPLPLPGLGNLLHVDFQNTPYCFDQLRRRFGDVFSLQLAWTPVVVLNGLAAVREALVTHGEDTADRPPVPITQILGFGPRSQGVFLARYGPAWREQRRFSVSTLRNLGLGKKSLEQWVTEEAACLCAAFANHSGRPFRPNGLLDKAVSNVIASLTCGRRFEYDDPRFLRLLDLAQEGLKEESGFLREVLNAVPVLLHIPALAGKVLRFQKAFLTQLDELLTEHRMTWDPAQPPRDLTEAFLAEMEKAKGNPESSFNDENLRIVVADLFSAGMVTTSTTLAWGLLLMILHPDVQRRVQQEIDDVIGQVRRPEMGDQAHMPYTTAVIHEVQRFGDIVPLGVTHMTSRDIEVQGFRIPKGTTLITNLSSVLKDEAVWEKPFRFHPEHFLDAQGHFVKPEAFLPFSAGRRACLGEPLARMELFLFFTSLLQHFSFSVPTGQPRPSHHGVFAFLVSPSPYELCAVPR

Cytochrome P450 1A2 = target: T2, Cytochrome P450 1A2 (Homo sapiens, UniProt P05177); experiment: Inhibition of human CYP1A2; assay type: ADME
T2 sequence (P05177 whole entry): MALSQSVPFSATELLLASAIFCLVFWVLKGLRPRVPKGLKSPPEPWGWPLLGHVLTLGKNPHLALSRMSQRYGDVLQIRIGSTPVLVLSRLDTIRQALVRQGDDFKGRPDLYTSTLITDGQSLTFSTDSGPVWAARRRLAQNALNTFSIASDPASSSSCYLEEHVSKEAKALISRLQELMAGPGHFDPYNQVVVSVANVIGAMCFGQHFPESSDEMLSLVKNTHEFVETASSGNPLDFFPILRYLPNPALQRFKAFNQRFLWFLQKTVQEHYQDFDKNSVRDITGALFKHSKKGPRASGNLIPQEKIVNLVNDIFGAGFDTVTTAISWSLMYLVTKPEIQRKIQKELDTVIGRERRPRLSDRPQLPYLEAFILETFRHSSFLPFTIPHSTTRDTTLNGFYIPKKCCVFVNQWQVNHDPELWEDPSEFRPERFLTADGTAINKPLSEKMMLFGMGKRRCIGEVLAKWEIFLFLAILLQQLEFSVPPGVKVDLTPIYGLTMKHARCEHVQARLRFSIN

Cytochrome P450 3A4 = Cytochrome P450 3A4 (Homo sapiens, UniProt P08684); experiment: Inhibition of human CYP3A4; assay type: ADME
Cytochrome P450 3A4, sequence (P08684 whole entry): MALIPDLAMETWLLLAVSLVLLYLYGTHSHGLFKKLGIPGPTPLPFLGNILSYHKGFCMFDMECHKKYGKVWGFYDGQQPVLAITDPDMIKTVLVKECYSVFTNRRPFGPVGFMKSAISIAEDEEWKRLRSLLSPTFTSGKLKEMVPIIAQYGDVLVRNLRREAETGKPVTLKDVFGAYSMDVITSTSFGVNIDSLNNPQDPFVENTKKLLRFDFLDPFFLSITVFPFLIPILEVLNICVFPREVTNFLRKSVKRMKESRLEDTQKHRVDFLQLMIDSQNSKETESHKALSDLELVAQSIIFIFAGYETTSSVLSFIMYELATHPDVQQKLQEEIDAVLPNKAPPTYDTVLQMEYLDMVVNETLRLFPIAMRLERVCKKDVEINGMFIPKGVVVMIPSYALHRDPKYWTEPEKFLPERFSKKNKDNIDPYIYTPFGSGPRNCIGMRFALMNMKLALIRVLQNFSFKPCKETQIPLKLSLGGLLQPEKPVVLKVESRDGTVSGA

Cytochrome P450 2C19 = Cytochrome P450 2C19 (Homo sapiens, UniProt P33261); experiment: Inhibition of human CYP2C19; assay type: ADME
Cytochrome P450 2C19, sequence (P33261 whole entry): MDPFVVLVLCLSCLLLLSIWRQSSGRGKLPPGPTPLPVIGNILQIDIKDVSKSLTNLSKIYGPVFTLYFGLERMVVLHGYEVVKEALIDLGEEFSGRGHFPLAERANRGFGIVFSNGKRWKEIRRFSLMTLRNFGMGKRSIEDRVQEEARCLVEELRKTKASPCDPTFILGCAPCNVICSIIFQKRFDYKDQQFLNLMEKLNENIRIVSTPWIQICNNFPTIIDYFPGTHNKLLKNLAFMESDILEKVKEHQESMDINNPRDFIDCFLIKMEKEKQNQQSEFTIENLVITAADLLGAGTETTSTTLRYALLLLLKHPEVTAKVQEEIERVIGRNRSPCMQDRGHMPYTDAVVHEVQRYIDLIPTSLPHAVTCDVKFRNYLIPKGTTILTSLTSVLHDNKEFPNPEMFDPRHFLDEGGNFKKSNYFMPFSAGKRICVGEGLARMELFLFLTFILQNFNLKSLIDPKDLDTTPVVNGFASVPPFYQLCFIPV

Cytochrome P450 2C9 = Cytochrome P450 2C9 (Homo sapiens, UniProt P11712); experiment: Inhibition of human CYP2C9; assay type: ADME
Cytochrome P450 2C9, sequence (P11712 whole entry): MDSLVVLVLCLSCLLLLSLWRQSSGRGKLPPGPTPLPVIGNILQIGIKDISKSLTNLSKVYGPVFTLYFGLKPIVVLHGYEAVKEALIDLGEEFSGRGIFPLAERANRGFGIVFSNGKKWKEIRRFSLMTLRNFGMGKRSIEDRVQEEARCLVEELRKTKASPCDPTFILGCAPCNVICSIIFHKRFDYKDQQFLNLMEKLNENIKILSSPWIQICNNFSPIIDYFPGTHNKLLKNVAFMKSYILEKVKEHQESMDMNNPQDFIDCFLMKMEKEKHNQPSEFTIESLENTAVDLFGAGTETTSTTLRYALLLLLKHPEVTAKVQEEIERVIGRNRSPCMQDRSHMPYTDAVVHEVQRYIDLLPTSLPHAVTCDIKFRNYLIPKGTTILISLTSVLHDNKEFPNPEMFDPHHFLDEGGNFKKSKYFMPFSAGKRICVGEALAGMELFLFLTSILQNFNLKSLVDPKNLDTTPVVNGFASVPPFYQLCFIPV

[2] = target: C-C chemokine receptor type 5 (Homo sapiens) (UniProt P51681); experiment: Inhibition of CCR5 receptor at 10 uM
C-C chemokine receptor type 5 (Homo sapiens), sequence (P51681 whole entry, looked up): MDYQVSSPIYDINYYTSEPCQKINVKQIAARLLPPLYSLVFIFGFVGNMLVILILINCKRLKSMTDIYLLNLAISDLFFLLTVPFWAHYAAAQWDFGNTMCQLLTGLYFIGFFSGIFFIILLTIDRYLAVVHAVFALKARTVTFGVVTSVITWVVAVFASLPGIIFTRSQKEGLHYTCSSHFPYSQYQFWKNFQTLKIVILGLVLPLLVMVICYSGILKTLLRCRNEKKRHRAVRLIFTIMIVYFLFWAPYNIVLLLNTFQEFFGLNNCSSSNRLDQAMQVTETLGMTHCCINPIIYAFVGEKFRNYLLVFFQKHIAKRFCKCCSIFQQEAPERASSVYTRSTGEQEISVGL

[3] = target: T3, C-C chemokine receptor type 1 (Homo sapiens) (UniProt P32246); experiment: Inhibition of CCR1 receptor at 10 uM
T3 sequence (whole entry): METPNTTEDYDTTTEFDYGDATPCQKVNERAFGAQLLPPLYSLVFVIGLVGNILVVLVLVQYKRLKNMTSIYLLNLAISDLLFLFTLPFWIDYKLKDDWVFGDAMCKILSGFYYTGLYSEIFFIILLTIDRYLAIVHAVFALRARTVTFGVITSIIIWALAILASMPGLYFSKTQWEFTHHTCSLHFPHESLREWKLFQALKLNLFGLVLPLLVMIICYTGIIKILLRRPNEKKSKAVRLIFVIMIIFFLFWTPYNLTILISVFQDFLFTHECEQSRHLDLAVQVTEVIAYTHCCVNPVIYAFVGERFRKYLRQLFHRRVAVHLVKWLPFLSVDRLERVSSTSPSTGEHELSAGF

[4] = target: C-C chemokine receptor type 2 (Homo sapiens) (UniProt P41597); experiment: Inhibition of CCR2 receptor at 10 uM
C-C chemokine receptor type 2 (Homo sapiens), sequence (P41597 whole entry, looked up): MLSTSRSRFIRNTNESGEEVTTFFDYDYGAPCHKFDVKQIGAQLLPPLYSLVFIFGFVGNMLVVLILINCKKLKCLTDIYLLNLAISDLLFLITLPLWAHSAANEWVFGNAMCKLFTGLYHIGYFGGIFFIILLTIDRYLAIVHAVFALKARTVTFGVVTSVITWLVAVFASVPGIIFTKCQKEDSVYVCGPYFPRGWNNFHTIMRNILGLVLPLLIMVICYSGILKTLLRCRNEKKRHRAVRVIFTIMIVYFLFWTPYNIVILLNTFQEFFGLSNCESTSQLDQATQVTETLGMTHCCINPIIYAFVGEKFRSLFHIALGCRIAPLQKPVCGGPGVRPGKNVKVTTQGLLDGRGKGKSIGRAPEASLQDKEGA

Row | SMILES | IC50 [1] [nM] | IC50 (Cytochrome P450 2D6) [nM] | other results
1 | O=C(N[C@@H]1C[C@H]2CC[C@@H](C1)N2Cc1ccc2cc(F)ccc2c1)c1ccccc1C(=O)N1CCCC1 | 225 | 7300 | 
2 | O=C(NC1C[C@H]2CC[C@H](C1)N2Cc1ccc2cc(F)ccc2c1)c1ccccc1-c1ccccc1 (stereo partly specified) |  |  | IC50 (Cytochrome P450 1A2): > 20000 nM; IC50 (Cytochrome P450 3A4): > 20000 nM; IC50 (Cytochrome P450 2C19): > 20000 nM; IC50 (Cytochrome P450 2C9): > 20000 nM
3 | O=C(N[C@@H]1C[C@H]2CC[C@@H](C1)N2Cc1ccc2cc(F)ccc2c1)c1ccccc1-c1nccs1 | 89 | 2400 | 
4 | O=C(N[C@@H]1C[C@H]2CC[C@@H](C1)N2Cc1ccc2cc(F)ccc2c1)c1ccccc1-n1ccnc1 | 217 |  | 
5 | CN1CCN(C(=O)c2ccccc2C(=O)N[C@@H]2C[C@H]3CC[C@@H](C2)N3Cc2ccc3cc(F)ccc3c2)CC1 | 482 | 7100 | 
6 | O=C(N[C@@H]1C[C@H]2CC[C@@H](C1)N2Cc1ccc2cc(F)ccc2c1)c1ccccc1-c1cccnc1 | 29 | 1600 | 
7 | O=C(N[C@@H]1C[C@H]2CC[C@@H](C1)N2Cc1ccc2cc(F)ccc2c1)c1cccnc1C(=O)N1CCCCC1 | 98 | 18300 | 
8 | O=C(N[C@@H]1C[C@H]2CC[C@@H](C1)N2Cc1ccc2cc(F)ccc2c1)c1cc[n+]([O-])cc1C(=O)N1CCCCC1 |  |  | Activity [2]: inactive; Activity [3]: inactive; Activity [4]: inactive
9 | O=C(N[C@@H]1C[C@H]2CC[C@@H](C1)N2Cc1ccc2cc(F)ccc2c1)c1cnccc1C(=O)N1CCCCC1 | 85 | 26700 | 
10 | O=C(N[C@@H]1C[C@H]2CC[C@@H](C1)N2Cc1ccc2cc(F)ccc2c1)c1ccccc1-n1cccc1 | 221 |  | 
11 | O=C(N[C@@H]1C[C@H]2CC[C@@H](C1)N2Cc1ccc2cc(F)ccc2c1)c1ccccc1-c1cncnc1 | 93 | 2900 | 
12 | O=C(N[C@@H]1C[C@H]2CC[C@@H](C1)N2Cc1ccc2cc(F)ccc2c1)c1ccncc1C(=O)N1CCCCC1 | 13 | 6800 | 
13 | O=C(N[C@@H]1C[C@H]2CC[C@@H](C1)N2Cc1ccc2cc(F)ccc2c1)c1ccccc1N1CCCCC1 | 279 |  | 
14 | O=C(N[C@@H]1C[C@H]2CC[C@@H](C1)N2Cc1ccc2cc(F)ccc2c1)c1ccccc1-c1ccccn1 | 57 | 4000 | 
15 | O=C(N[C@@H]1C[C@H]2CC[C@@H](C1)N2Cc1ccc2cc(F)ccc2c1)c1ccccc1-c1ccncc1 | 613 |  | 
16 | O=C(N[C@@H]1C[C@H]2CC[C@@H](C1)N2Cc1ccc2cc(F)ccc2c1)c1ccccc1C(=O)N1CCCCCC1 | 12 | 3000 | 
17 | O=C(N[C@@H]1C[C@H]2CC[C@@H](C1)N2Cc1ccc2cc(F)ccc2c1)c1ncccc1C(=O)N1CCCCC1 | 131 | 23500 | 
18 | O=C(N[C@@H]1C[C@H]2CC[C@@H](C1)N2Cc1ccc2cc(F)ccc2c1)c1ccccc1C(=O)N1CCCCC1 | 23 | 6500 | 
19 | CN(C(=O)c1ccccc1C(=O)N[C@@H]1C[C@H]2CC[C@@H](C1)N2Cc1ccc2cc(F)ccc2c1)C1CCCCC1 | 44 | 2900 | 
20 | O=C(N[C@@H]1C[C@H]2CC[C@@H](C1)N2Cc1ccc2cc(F)ccc2c1)c1ccccc1C(=O)N1CCOCC1 | 679 | 8200 | 
21 | O=C(N[C@@H]1C[C@H]2CC[C@@H](C1)N2Cc1ccc2cc(F)ccc2c1)c1ccccc1OC1CCCCC1 | 118 | 580 | 
